Experimental data published in publication PMC9179341, “Design of New Potent and Selective Thiophene-Based KV1.3 Inhibitors and Their Potential for Anticancer Activity” (Cancers, 2022).
Entries after “also recorded” stand apart in the source; their conditions may differ.

Columns and labels:
Format in all cases: cell-based
KV2.1 = molecular target: T1, KV2.1 (Homo sapiens, UniProt Q14721); experiment: Selectivity, HiClamp Xenopus laevis heterologous expression system, KV2.1
T1 sequence (Q14721 1-858): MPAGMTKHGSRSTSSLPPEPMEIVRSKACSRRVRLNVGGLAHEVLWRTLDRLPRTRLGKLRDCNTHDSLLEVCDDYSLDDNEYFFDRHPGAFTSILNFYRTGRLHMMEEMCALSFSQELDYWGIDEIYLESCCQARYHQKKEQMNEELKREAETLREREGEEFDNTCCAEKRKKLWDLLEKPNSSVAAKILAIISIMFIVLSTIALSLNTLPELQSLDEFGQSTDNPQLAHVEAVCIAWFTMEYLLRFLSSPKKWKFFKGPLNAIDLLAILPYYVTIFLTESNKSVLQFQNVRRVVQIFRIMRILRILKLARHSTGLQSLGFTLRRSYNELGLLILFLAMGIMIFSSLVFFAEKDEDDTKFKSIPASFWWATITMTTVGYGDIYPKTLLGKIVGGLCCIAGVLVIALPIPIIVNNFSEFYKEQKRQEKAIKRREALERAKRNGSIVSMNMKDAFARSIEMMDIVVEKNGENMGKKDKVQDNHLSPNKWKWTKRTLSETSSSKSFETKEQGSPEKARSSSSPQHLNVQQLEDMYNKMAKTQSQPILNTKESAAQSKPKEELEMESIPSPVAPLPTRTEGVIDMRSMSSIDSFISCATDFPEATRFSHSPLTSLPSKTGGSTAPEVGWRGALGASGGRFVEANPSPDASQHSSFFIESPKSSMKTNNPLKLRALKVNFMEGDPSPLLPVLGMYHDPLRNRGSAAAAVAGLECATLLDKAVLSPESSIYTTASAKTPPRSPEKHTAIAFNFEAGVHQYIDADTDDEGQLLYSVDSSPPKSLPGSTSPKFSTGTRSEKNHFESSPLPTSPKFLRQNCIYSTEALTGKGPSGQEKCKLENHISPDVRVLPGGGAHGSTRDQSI
Method: (§1) Ion channels (Kv1.x, Kv2.1, Kv4.2, Kv10.1) were expressed in Xenopus laevis oocytes by linearization of the plasmids and subsequent in vitro transcription using a commercial T7 or SP6 mMESSAGE mMACHINE transcription kit (Ambion, Carlsbad, California, USA). Defolliculated Xenopus oocytes were then injected with 20–50 nL of the cRNA at a concentration of 1 ng/nL using a micro-injector (Drummond Scientific1, Broomall, PA, USA). The oocytes were incubated in a solution containing (in mM): NaCl, 96; KCl, 2; CaCl2, 1.8; MgCl2, 2 and HEPES, 5 (pH 7.5), supplemented with 50 mg/L gentamycin sulfate and 90 mg/L theophylline. After ex vivo translation, the ion channels were correctly inserted in the cell membrane of the oocytes.
(§2) Two-electrode voltage-clamp recordings were performed at room temperature (18–22 °C) using a Geneclamp 500 amplifier (Molecular Devices, San Jose, CA, USA) and pClamp data acquisition (Axon Instruments, Union City, CA, USA) and using an integrated digital TEVC amplifier controlled by HiClamp, an automated Voltage-Clamp Screening System (Multi Channel Systems MCS GmbH, Reutlingen, Germany). Whole-cell currents from oocytes were recorded 1–4 days after injection. The bath solution composition was ND96 (in mM): NaCl, 96; KCl, 2; CaCl2, 1.8; MgCl2, 2 and HEPES, 5 (pH 7.5). Voltage and current electrodes were filled with a 3 M solution of KCl in H2O. […]
(§3) For the electrophysiological analysis of the compounds, a number of protocols were applied from a holding potential of −90 mV. […] The concentration dependency of all compounds was assessed by measuring the current inhibition in the presence of increasing compound concentrations. […]
(§4) All electrophysiological data (Figure S1) are presented as means ± S.E.M of n ≥ three independent experiments unless otherwise indicated. All data were analyzed using pClamp Clampfit 10.4 (Molecular Devices, Downingtown, PA, USA), OriginPro 9 (Originlab, Northampton, MA, USA), GraphPad Prism 8 software (GraphPad Software, Inc., San Diego, CA, USA) and DataMining (Multi Channel Systems MCS GmbH, Reutlingen, Germany). […]

Panc-1 cells = experiment: Cell proliferation (culture confluency, IncuCyte) in 2D culture, Panc-1; settings: 100 µM, confluence by live cell imaging
Method: Cell lines Panc-1 (ACC 783) and Colo-357 (CVCL_0221) were obtained through the validated collection of the pHioniC consortium (MSC-ITN 813834). Both cell lines were grown in RPMI1640, supplemented with 1 mM sodium pyruvate and 1% Glutamax (all Gibco Thermo-Fisher, Waltham, MA USA) 10%FBS (BioChrom, Berlin, Germany), at 5% CO2 and 37 °C in a humidified atmosphere.
For cell proliferation assays, cells were seeded at a density of 10,000 cells/well in 96-well flat bottom culture plates (Corning, Kaiseslautern, Germany) and proliferation was measured through culture confluency using an IncuCyte device (Sartorius, Göttingen, Germany). Every hour, two phase contrast images per well were acquired, and a confluency mask was generated by training the analysis algorithm using representative images. Every image was then analyzed using the obtained parameters to determine culture confluency. Treatments were then added when cells reached a confluency of ~30% (Panc-1) or ~55% (Colo-357), and proliferation was determined for the following 60 h. Proliferation is reported as confluency increase with respect to the start of the treatment.

KV1.2 = KV1.2 (Homo sapiens, UniProt P16389); experiment: Selectivity, HiClamp Xenopus laevis heterologous expression system, KV1.2; settings: for IC50: HiClamp, oocytes, NA = no significant inhibition, no IC50 determined; for Effect on KV1.2 channel: at a concentration of the compound's IC50 value for KV1.3
KV1.2, sequence (P16389 whole entry): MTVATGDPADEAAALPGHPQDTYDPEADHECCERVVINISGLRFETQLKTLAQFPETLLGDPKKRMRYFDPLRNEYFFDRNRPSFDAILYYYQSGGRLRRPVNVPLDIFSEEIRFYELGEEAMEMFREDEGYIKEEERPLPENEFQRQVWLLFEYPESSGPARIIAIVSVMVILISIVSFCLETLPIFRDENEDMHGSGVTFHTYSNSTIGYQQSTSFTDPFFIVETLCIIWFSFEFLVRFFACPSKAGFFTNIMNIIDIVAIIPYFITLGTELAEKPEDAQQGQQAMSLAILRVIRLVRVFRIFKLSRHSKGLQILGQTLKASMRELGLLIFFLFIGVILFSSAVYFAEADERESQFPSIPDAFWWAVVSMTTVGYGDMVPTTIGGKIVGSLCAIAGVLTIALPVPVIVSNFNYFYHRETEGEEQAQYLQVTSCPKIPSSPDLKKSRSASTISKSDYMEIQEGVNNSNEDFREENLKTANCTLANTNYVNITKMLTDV
Method: as §1
(§5) Two-electrode voltage-clamp recordings were performed at room temperature (18–22 °C) using a Geneclamp 500 amplifier (Molecular Devices, San Jose, CA, USA) and pClamp data acquisition (Axon Instruments, Union City, CA, USA) and using an integrated digital TEVC amplifier controlled by HiClamp, an automated Voltage-Clamp Screening System (Multi Channel Systems MCS GmbH, Reutlingen, Germany). Whole-cell currents from oocytes were recorded 1–4 days after injection. The bath solution composition was ND96 (in mM): NaCl, 96; KCl, 2; CaCl2, 1.8; MgCl2, 2 and HEPES, 5 (pH 7.5). Voltage and current electrodes were filled with a 3 M solution of KCl in H2O. Resistances of both electrodes were kept between 0.5 and 1.5 MΩ. The elicited Kv1.x, Kv2.1, Kv4.2 and Kv10.1 currents were filtered at 0.5 kHz and sampled at 2 kHz using a four-pole low-pass Bessel filter. Leak subtraction was performed using a P/4 protocol.
(§6) For the electrophysiological analysis of the compounds, a number of protocols were applied from a holding potential of −90 mV. Currents for Kv1.x, Kv2.1, Kv4.2 and Kv10.1 were evoked by 1 s depolarizing pulses either to 0 mV or to a range of voltage steps between −80 mV and +40 mV. For the analysis of the data, only the inhibition at the 0 mV step was used. The concentration dependency of all compounds was assessed by measuring the current inhibition in the presence of increasing compound concentrations. […] From this stock solution, adequate dilutions with a maximum of 0.5% DMSO were made for testing.
(§7) All electrophysiological data (Figure S1) are presented as means ± S.E.M of n ≥ three independent experiments unless otherwise indicated. All data were analyzed using pClamp Clampfit 10.4 (Molecular Devices, Downingtown, PA, USA), OriginPro 9 (Originlab, Northampton, MA, USA), GraphPad Prism 8 software (GraphPad Software, Inc., San Diego, CA, USA) and DataMining (Multi Channel Systems MCS GmbH, Reutlingen, Germany). The Dunnett test and one-way ANOVA were performed to calculate the significance of the induced inhibition compared to the control.

KV1.5 = KV1.5 (Homo sapiens, UniProt P22460); experiment: Selectivity, HiClamp Xenopus laevis heterologous expression system, KV1.5; settings: for IC50: HiClamp, oocytes, NA = no significant inhibition, no IC50 determined; for Effect on KV1.5 channel: at a concentration of the compound's IC50 value for KV1.3
KV1.5, sequence (P22460 whole entry): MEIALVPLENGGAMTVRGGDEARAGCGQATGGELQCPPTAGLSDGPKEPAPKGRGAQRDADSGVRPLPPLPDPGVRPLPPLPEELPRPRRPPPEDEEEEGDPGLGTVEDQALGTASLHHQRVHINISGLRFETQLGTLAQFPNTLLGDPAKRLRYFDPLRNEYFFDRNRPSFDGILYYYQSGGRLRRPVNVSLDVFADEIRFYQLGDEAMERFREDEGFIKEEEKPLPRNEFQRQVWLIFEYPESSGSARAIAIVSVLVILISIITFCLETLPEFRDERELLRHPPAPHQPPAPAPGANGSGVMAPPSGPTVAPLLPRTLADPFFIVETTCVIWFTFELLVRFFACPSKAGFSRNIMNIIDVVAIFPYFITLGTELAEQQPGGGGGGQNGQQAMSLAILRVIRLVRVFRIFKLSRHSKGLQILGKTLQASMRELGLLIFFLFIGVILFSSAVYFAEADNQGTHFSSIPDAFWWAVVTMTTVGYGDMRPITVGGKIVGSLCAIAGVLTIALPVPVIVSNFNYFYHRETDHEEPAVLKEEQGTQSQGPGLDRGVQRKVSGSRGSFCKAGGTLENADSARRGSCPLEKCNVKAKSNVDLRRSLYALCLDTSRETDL
Method: as §1, §5, §6, §7

KV1.3 = KV1.3 (Homo sapiens, UniProt P22001); experiment: KV1.3 inhibition, manual whole-cell patch-clamp on Ltk^− cells; design: expressed in transfected cells; host or cells: Ltk- cells (mouse fibroblasts), transient transfection with lipofectamine 2000
KV1.3, sequence (P22001 whole entry): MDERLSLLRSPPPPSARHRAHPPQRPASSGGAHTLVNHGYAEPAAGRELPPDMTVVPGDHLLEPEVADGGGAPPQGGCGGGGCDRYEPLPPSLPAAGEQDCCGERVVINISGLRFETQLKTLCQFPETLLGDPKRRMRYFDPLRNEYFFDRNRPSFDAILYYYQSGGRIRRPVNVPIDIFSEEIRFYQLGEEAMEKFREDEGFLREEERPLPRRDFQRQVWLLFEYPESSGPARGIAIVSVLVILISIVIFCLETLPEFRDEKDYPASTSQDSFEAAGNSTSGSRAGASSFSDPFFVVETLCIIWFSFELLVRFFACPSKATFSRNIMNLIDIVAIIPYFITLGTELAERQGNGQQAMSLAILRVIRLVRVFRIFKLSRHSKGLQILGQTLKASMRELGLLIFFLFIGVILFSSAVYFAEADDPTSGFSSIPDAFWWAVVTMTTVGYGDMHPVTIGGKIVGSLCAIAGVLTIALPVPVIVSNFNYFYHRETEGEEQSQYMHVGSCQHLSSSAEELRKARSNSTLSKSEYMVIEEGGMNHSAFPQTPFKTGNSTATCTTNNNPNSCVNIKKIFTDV
Method: Ltk^− cells were cultured in Dulbecco’s Modified Eagle Medium (DMEM) supplemented with 10% horse serum and 1% penicillin/streptomycin (Invitrogen, Waltham, CA, USA). […] The coding sequence of hKv1.3 was cloned in a pEGFP plasmid without removing the stop codon (i.e., eGFP was not transcribed). Therefore, during transfection 0.5 µg of pEGFP plasmid (expressing eGFP) was added as transfection marker Cells were collected 24h post-transfection using a 0.05% trypsin-EDTA solution (Thermo Fisher Scientific, Waltham, MA, USA) and transferred to the recording chamber mounted on the stage of an inverted Nikon Eclipse TE2000 fluorescence microscope (Nikon, Minato, Japan). The compounds were dissolved in 100% DMSO and stock solutions were stored at -20°C. Before use, the stock concentrations were diluted with extracellular recording solution to appropriate concentrations, making sure that the final DMSO concentration never exceeded 0.1%. A 0.1% DMSO solution was prepared as a vehicle control.
All recordings were conducted at room temperature (20–23 °C) in the whole-cell configuration using an axopatch 200b amplifier (Molecular Devices, San Jose, CA, USA). Applied voltage pulse protocols and current recordings were controlled with pClamp 10 software and digitized using an axon digidata 1440 (Molecular Devices, San Jose, CA, USA). The cells in the recording chamber were continuously superfused with an extracellular solution (containing in mM): NaCl 145, KCl 4, MgCl2 1, CaCl2 1.8, HEPES 10, and glucose 10 (adjusted to pH 7.35 with NaOH). Patch pipettes were pulled from borosilicate glass (World Precision Instruments, Sarasota, FL, USA), using a P-2000 puller (Sutter Instruments, Novato, CA, USA), with resistances ranging from 1.5–2 MΩ. These pipettes were backfilled with an intracellular solution (containing in mM): KCl 110, K2ATP 5, MgCl2 2, HEPES 10, and K4BAPTA 5 (adjusted to pH 7.2 with KOH). Junction potentials were zeroed with the filled pipette in the extracellular solution of the recording chamber. A series resistance compensation of 80% was employed. Recordings were passed through a 5 kHz low-pass filter while being sampled at 10 kHz. A single step from holding potential (−80 mV) to +40 mV was utilized to monitor KV1.3 current inhibition. The pulse duration was 200 ms with an interpulse interval of 15 s. […]
The data was analyzed with pClamp 10 software (Molecular Devices, San Jose, CA, USA), and the dose-response curves shown were made using Sigmaplot 11.0 (Systat software, Palo Alto, CA USA). […] Results are expressed as mean ± SEM, with n being the number of cells analyzed. EC50 values were determined by fitting the Hill equation to the dose-response curve.

KV1.4 = KV1.4 (Homo sapiens, UniProt P22459); experiment: Selectivity, HiClamp Xenopus laevis heterologous expression system, KV1.4
KV1.4, sequence (P22459 whole entry): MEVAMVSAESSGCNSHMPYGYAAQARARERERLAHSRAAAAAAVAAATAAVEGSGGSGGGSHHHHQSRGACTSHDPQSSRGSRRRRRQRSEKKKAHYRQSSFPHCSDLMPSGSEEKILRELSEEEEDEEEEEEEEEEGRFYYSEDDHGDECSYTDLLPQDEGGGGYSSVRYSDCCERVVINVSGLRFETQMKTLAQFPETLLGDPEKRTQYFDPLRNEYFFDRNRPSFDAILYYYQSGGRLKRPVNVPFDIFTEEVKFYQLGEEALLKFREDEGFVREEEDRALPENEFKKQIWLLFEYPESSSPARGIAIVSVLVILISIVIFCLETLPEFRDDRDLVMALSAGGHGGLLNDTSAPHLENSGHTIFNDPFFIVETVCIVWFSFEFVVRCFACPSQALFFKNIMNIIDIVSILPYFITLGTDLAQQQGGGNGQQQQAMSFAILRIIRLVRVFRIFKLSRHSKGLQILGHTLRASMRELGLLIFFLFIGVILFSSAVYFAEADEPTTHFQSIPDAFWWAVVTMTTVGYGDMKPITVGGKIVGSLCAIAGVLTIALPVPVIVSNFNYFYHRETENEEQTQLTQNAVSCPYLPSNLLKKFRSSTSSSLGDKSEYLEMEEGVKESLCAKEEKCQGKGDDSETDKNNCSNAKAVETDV
Method: as §1, §2, §3, §4

KV10.1 = KV10.1 (Homo sapiens, UniProt O95259); experiment: Selectivity, HiClamp Xenopus laevis heterologous expression system, KV10.1; settings: at a concentration of the compound's IC50 value for KV1.3
KV10.1, sequence (O95259 whole entry): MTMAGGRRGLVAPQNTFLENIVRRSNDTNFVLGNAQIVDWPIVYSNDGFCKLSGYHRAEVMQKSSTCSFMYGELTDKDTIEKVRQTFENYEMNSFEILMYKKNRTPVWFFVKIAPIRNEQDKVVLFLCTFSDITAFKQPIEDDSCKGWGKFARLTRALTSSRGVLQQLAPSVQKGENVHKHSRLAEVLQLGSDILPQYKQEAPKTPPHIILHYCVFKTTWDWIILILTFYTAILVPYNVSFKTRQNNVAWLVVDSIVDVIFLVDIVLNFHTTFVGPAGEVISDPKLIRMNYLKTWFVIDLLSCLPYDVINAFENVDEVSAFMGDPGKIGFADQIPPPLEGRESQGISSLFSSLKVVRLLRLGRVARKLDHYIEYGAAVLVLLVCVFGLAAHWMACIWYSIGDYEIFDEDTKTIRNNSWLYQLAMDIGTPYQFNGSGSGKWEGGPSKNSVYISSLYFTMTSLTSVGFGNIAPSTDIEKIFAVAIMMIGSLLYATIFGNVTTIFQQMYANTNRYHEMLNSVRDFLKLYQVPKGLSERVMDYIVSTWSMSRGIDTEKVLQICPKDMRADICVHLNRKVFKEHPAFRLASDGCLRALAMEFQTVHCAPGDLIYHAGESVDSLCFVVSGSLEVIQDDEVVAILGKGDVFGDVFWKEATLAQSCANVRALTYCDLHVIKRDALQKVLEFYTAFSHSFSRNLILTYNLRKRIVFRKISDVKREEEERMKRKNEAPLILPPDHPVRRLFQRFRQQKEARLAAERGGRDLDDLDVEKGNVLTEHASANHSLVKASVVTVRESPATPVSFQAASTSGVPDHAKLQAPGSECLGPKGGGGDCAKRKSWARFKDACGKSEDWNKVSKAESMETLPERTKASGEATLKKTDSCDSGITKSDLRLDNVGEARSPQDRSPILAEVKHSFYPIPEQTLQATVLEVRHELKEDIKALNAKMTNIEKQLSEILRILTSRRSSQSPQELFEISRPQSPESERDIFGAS
Method: as §1, with “After ex vivo translation, the ion channels were correctly inserted in the cell membrane of the oocytes.” left out
as §2, with “injection.” for “injection. The bath solution composition was ND96 (in mM): NaCl, 96; KCl, 2; CaCl2, 1.8; MgCl2, 2 and HEPES, 5 (pH 7.5). Voltage and current electrodes were filled with a 3 M solution of KCl in H2O.”
as §3

[1] = HiClamp, oocytes, NA = no significant inhibition, no IC50 determined
[2] = at a concentration of the compound's IC50 value for KV1.3

| Structure (SMILES) | IC50 (KV2.1; [1]) [µM] | Growth (proliferation) inhibition of Panc-1 cells (Panc-1 cells) | IC50 (KV1.2) [µM] | Effect on KV1.2 channel (KV1.2) | IC50 (KV1.5) [µM] | Effect on KV1.5 channel (KV1.5) | IC50 (KV1.3) [µM] | Effect on KV2.1 channel (KV2.1; [2]) | IC50 (KV1.4; [1]) [µM] | inhibition of KV1.4 (KV1.4; [2]) [%] | Effect on KV10.1 channel (KV10.1) |
| --- | --- | --- | --- | --- | --- | --- | --- | --- | --- | --- | --- |
| COc1ccccc1C(=O)NCC1(c2cccs2)CCOC1 (stereo not drawn) [Compound 14] | 6.45 ± 0.42 | significantly inhibited; also recorded: strong inhibition | 4 ± 0.2 | significant effects | 2.07 ± 0.13 | significant effects | 1.33 ± 0.2 |  |  |  |  |
| COc1ccc(F)cc1C(=O)NCC1(c2ccccc2)CCOCC1 [Compound 37] |  | significantly inhibited; also recorded: strong inhibition | 2.34 ± 0.26 | significantly inhibited | 8.64 ± 0.03 | significantly inhibited | 1.35 ± 0.04 |  |  |  |  |
| COc1ccccc1C(=O)NCC1(c2cccs2)CCOCC1 [Compound 43] |  | significantly inhibited; also recorded: strong inhibition | 2.76 ± 0.56 | significant effects | 4.33 ± 0.01 | significant effects | 1.02 ± 0.07 |  |  |  |  |
| COc1ccccc1C(=O)NCC1(c2ccsc2)CCOCC1 [Compound 44] |  | significantly inhibited; also recorded: moderate growth inhibition |  | no significant effects |  | no significant effects | 0.95 ± 0.24 | no significant effects | 8.48 ± 2.21 | ~16 | no significant effects |
